Series [1] concerns CEM/VLB1000 Cells. Nature of the series: Enhancement of 3H-vinblastine accumulation. In kind it is cell-based. To be noted: midpoint (EC50) of minimum and maximum increase in accumulation of 3H-vinblastine, 3H-vinblastine 550 nM, 3 hours at 37°C, read-out: [^3H]VLB Accumulation (µM) CEM/VLB1000 Cells. On the procedure:
Enhancement of ^3H-vinblastine accumulation was also measured in the cell line. Corning Easy-Wash 96 well plates were pretreated with PBS and 1% BSA for 60 minutes and then dried. CEM/VLB1000 cells were seeded at 2 x 10^5, 40 µL volume. Plates were incubated at 37°C for 30-60 minutes prior to use. The reference reversing agent, verapamil, or the compound of the present invention was added to the well followed by addition of media containing ^3H-vinblastine (final concentration = 550 nM). Plates were allowed to incubate for 3 hours at 37°C. Cells were harvested onto pretreated Wallace filtermats B (pretreated overnight with 0.1% polyethyleneimine) using a TomTek harvester-96. After filtering, the filtermats were allowed to dry completely. Meltix B scintillant was then added to the filtermats. The filters were then placed in a 90°C oven for approximately 3-5 minutes and then removed. Scintillant was allowed to solidify on the filtermats. Filtermats were then placed in sample bags and read on a Wallace BetaPlate scintillation counter. The effect of compounds of the present invention in the cytotoxicity potentiation assays and vinblastine (VLB) accumulation assay is given in the Table below: […]

In series [2] the test system is CEM/VLB1000 Cells. Description: Cytotoxicity potentiation assay (alamar blue), vinblastine in CEM/VLB1000 cells. To be noted: read-out: Cytotoxicity Potentiation (µM) CEM/VLB1000 Cells; midpoint (EC50) of minimum and maximum cytotoxicity induced by 5 µg/mL vinblastine and compound; 48 hours incubation, alamar blue 24 hours. On the procedure: Multidrug-resistant cell lines are easily obtainable for in vitro determination of drug sensitization by compounds of the present invention. In vitro potentiation of antineoplastic cytotoxicity by the imidazole derivatives of the present invention was measured in both CEM/VLB1000 and SK/VLB1000 cell lines. The multidrug resistant cell lines-were obtained from Dr. Victor Ling, Ontario Cancer Institute, Toronto, Canada. The CEM/VLB 1000 cell line was maintained as a suspension in minimum essential medium supplemented with 10% of fetal bovine serum in a humidied atmosphere of 95% air and 5% CO2 while the SK/VLB 1000 cell line was maintained as adherent cells using the identical medium conditions as the CEM cells. The CEM/VLB 1000 cells were seeded at a density of 5 x 10^4 cells/well in a 96 well microtiter plate while the SK/VLB 1000 cell line was seeded at a density of 2,500 cells/well after trypsinization. Vinblastine (5 µg/mL, for the CEM cells) or Taxol (3 µg/mL, for the SK cells) and compound (0.01 to 50 µM) were added directly to the wells. After an incubation of 48 hours in presence of drug, alamar blue (B. Page et al., Int. J. Oncol. 3: 473-476, 1993) was added (20 µL to the 200 µL cell suspension) for a period of 24 hours after which the fluorescence (excitation = […], emission = […]) was read for each well using a "CytoFluor" microtiter fluorometer plate reader. This assay measures the minimal concentration of compound necessary to enhance the cytotoxicity (EC50) of vinblastine in the MDR cell line.
A general note: Resazurin is reduced to fluorescent resorufin, in cell work by metabolically active cells.

The next series has as its system SK/VLB1000 Cells. Nature of the series: Cytotoxicity potentiation assay (alamar blue), Taxol in SK/VLB1000 cells. The class given is cell-based. To be noted: midpoint (EC50) of minimum and maximum cytotoxicity; method: Taxol 3 µg/mL for the SK cells (footnote: 5 µg/mL vinblastine); 48 hours incubation, alamar blue 24 hours.

Structures are written as SMILES. Where a name gives a salt, the structure may show the parent alone.

Description for SK/VLB1000 Cells: In vitro potentiation of antineoplastic cytotoxicity by the imidazole derivatives of the present invention was measured in both CEM/VLB1000 and SK/VLB1000 cell lines. The multidrug resistant cell lines-were obtained from Dr. Victor Ling, Ontario Cancer Institute, Toronto, Canada. The CEM/VLB 1000 cell line was maintained as a suspension in minimum essential medium supplemented with 10% of fetal bovine serum in a humidied atmosphere of 95% air and 5% CO2 while the SK/VLB 1000 cell line was maintained as adherent cells using the identical medium conditions as the CEM cells. The CEM/VLB 1000 cells were seeded at a density of 5 x 10^4 cells/well in a 96 well microtiter plate while the SK/VLB 1000 cell line was seeded at a density of 2,500 cells/well after trypsinization. Vinblastine (5 µg/mL, for the CEM cells) or Taxol (3 µg/mL, for the SK cells) and compound (0.01 to 50 µM) were added directly to the wells. After an incubation of 48 hours in presence of drug, alamar blue (B. Page et al., Int. J. Oncol. 3: 473-476, 1993) was added (20 µL to the 200 µL cell suspension) for a period of 24 hours after which the fluorescence (excitation = 530 nM, emission = 590 nM) was read for each well using a "CytoFluor" microtiter fluorometer plate reader. This assay measures the minimal concentration of compound necessary to enhance the cytotoxicity (EC50) of vinblastine in the MDR cell line.

In the case of `COc1ccc(-c2nc(-c3ccc(O)cc3)n(Cc3ccccc3)c2-c2ccc(OC)cc2)cc1` [Example 2, 1-benzyl-2-(4-hydroxyphenyl)-4,5-di-(4-methoxyphenyl)-imidazole trifluoroacetic acid salt], the EC50 with CEM/VLB1000 Cells [1] is 2 µM.
For `CN(C)c1ccc(-c2nc(-c3ccc(O)cc3)[nH]c2-c2ccc(N(C)C)cc2)cc1` [Example 9, 4,5-di-[4-(dimethylamino)-phenyl]-2-(4-hydroxyphenyl)-1(H)-imidazole], the EC50 in the series with CEM/VLB1000 Cells [2] is 10 µM; in the series with CEM/VLB1000 Cells [1] it was 20 µM; in the series with SK/VLB1000 Cells it was 10 µM.
`Oc1ccc(-c2nc(-c3ccccc3)c(-c3ccccc3)n2-c2ccccc2)cc1` [Example 1, 2-(4-hydroxyphenyl)-1,4,5-triphenyl-imidazole trifluoroacetic acid salt]: in the series with CEM/VLB1000 Cells [1], the EC50 is 20 µM.
Take `CCCCCCn1c(-c2ccc(OCCCN(C)C)cc2)nc(-c2ccc(OC)cc2)c1-c1ccc(OC)cc1` [Example 16, 4,5-di-(4-methoxyphenyl)-2-{4-[3-(dimethylamino)-propyloxy]-phenyl}-1-(n-hexyl)-imidazole]: the EC50 was determined as 2 µM with CEM/VLB1000 Cells [2] and 10 µM in the series on SK/VLB1000 Cells.
As for `CN(C)c1ccc(-c2nc(-c3ccc(C(=O)O)cc3)n(CCc3ccccc3)c2-c2ccc(N(C)C)cc2)cc1` [Example 11, 2-(4-carboxyphenyl)-4,5-di-[4-(dimethylamino)-phenyl]-1-(2-phenylethyl)-imidazole], the EC50 in the series with CEM/VLB1000 Cells [2] was found to be 10 µM.
Take `COC(=O)/C=C/c1ccc(-c2nc(-c3ccc(OC)cc3)c(-c3ccc(OC)cc3)n2CCCCCC(=O)OC)cc1` [Example 13, 4,5-di-(4-methoxyphenyl)-2-{4-[trans-(2-methoxycarbonyl)-ethenyl]-phenyl}-1-[5-(methoxycarbonyl)-n-pentyl)-imidazole]: the EC50 in the series with CEM/VLB1000 Cells [2] turned out to be 0.6 µM.
Regarding `CCCCCCn1c(-c2ccc(C(=O)O)cc2)nc(-c2ccc(N(C)C)cc2)c1-c1ccc(N(C)C)cc1` [Example 5, 2-(4-carboxyphenyl)-4,5-di-[4-(dimethylamino)-phenyl]-1-(n-hexyl)-imidazole], the EC50 was 3 µM in the series with CEM/VLB1000 Cells [2], 12 µM in the series with CEM/VLB1000 Cells [1] and 10 µM in the series with SK/VLB1000 Cells.
Take `CN(C)c1ccc(-c2nc(-c3ccc(O)cc3)n(CCc3ccccc3)c2-c2ccc(N(C)C)cc2)cc1` [Example 10, 4,5-di-[4-(dimethylamino)-phenyl]-2-(4-hydroxyphenyl)-1-(2-phenylethyl)-imidazole]: the EC50 in the series on CEM/VLB1000 Cells [2] turned out to be 2 µM; with CEM/VLB1000 Cells [1], 10 µM.
With `CN(C)c1ccc(-c2nc(-c3ccc(/C=C/C(=O)O)cc3)n(CCc3ccccc3)c2-c2ccc(N(C)C)cc2)cc1` [Example 12, 2-[4-(trans-2-carboxyethenyl)-phenyl]-4,5-di-[4-(dimethylamino)-phenyl]-1-(2-phenylethyl)-imidazole], in the series with CEM/VLB1000 Cells [2], the EC50 was found to be 10 µM.
On the same count and under the same terms, the figure for `CCCCCCn1c(-c2ccc(C(=O)OC)cc2)nc(-c2ccc(N(C)C)cc2)c1-c1ccc(N(C)C)cc1` [Example 6, 4,5-di-[4-(dimethylamino)-phenyl]-1-(n-hexyl)-2-[4-(methoxycarbonyl)-phenyl]-imidazole] is 5 µM.
Regarding `COc1ccc(-c2nc(-c3ccc(/C=C/c4ccccc4)cc3)n(CCCn3ccnc3)c2-c2ccc(OC)cc2)cc1` [Example 14, 2-(trans-4-stilbenyl)-1-[3-(imidazol-1-yl)-n-propyl]-4,5-di-(4-methoxyphenyl)-imidazole], the EC50 in the series with CEM/VLB1000 Cells [2] turned out to be 0.4 µM; in the series on SK/VLB1000 Cells it was 1 µM.
For `COC(=O)/C=C/c1ccc(-c2nc(-c3ccc(N(C)C)cc3)c(-c3ccc(N(C)C)cc3)n2CCCCCC(=O)OC)cc1` [Example 15, 4,5-di-[4-(dimethylamino)-phenyl]-2-{4-[trans-(2-methoxycarbonyl)-ethenyl]-phenyl}-1-[5-(methoxycarbonyl)-n-pentyl-]-imidazole], the EC50 in the series with CEM/VLB1000 Cells [2] was determined as 0.6 µM; in the series with SK/VLB1000 Cells, 5 µM.
Turning to `COC(=O)c1ccc(-c2nc(-c3ccc(N(C)C)cc3)c(-c3ccc(N(C)C)cc3)[nH]2)cc1` [Example 4, 4,5-di-[4-(dimethylamino)-phenyl]-2-[4-(methoxycarbonyl)-phenyl]-1(H)-imidazole], the EC50 with CEM/VLB1000 Cells [2] worked out at 0.3 µM; with CEM/VLB1000 Cells [1], 5 µM; in the series with SK/VLB1000 Cells, 1 µM.
`CN(C)c1ccc(-c2nc(-c3ccc(C(=O)O)cc3)[nH]c2-c2ccc(N(C)C)cc2)cc1` [Example 3, 2-(4-carboxyphenyl)-4,5-di-[4-(dimethylamino)-phenyl]-1(H)-imidazole]: in the series with CEM/VLB1000 Cells [2], the EC50 worked out at 10 µM.
Consider `CN(C)c1ccc(-c2nc(-c3ccc(/C=C/C(=O)O)cc3)[nH]c2-c2ccc(N(C)C)cc2)cc1` [Example 7, 2-[4-(trans-2-carboxyethenyl)-phenyl] -4,5-di-[4-(dimethylamino)-phenyl]-1(H)-imidazole], for which, in the series on CEM/VLB1000 Cells [2], the EC50 turned out to be 10 µM.
Take `COC(=O)C=Cc1ccc(-c2nc(-c3ccc(N(C)C)cc3)c(-c3ccc(N(C)C)cc3)[nH]2)cc1` [Example 8, 4,5-di-[4-(dimethylamino)-phenyl]-2-{4-[trans-(2-methoxycarbonyl)-ethenyl]-phenyl}-1(H)-imidazole]: the EC50 in the series with CEM/VLB1000 Cells [2] amounted to 0.3 µM; in the series on CEM/VLB1000 Cells [1] it was 5 µM; in the series on SK/VLB1000 Cells, 0.3 µM.

For the origin of these results see patent EP0812829A1, “Substituted imidazoles as modulators of multi-drug resistance” (ONTOGEN CORPORATION, priority 1996, dated 1997).
